Like-named read-outs stand apart in the source and are kept apart here.
Key:
[1] = Cytotoxicity, [3H]-thymidine uptake, DU145; type: cell-based; details: human, DU145 cells
Protocol: (§1) The cellular toxicity of the BCH compounds were assessed on various cells using [^3H]-thymidine uptake. The various cells, including Molt-4, HT1080, DU-145, HepG 2 and HSF, were plated at a concentration of 1-2×10^3 cells per well (96 well plates). However, PHA-stimulated PBMCs were cultured at a concentration of 4×10^4. After a 24 hr incubation period, 10-fold serial diluted compounds (10^−4 M to 10^−10 M) were added to the culture medium and the cells were further incubated for 72 hrs. [^3H]-thymidine was added during the final 18 hr incubation period. After incubation with the [^3H]-thymidine, the cells were washed once with PBS, treated with trypsin it the cells were adherent, and then resuspended in water (hypotonic lysing of cells) The cellular extract was applied directly to a Tomtec Harvester 96. Using this instrument the extracted DNA is adsorbed onto filters, washed and the incorporated [^3H]-thymidine is then counted.

[2] = Cytotoxicity, [3H]-thymidine uptake, HepG2; type: cell-based; details: human, HepG2 cells
Protocol: as §1

[3] = Cytotoxicity, [3H]-thymidine uptake, HT-1080; type: cell-based; details: human, HT-1080 cells
Protocol: as §1

[4] = system: HIV-1IIIB; test: Anti-HIV-1 antiviral assay, laboratory strain HIV-1IIIB, RT activity in culture supernatants
Protocol: Most experiments were performed with a laboratory strain HIV-1III. […] The cells were incubated with virus using the indicated multiplicity of infection (MOI) for 2-3 hrs. The MOI used for each experiment was dependent upon the cell line and virus strain used, and was generally in the range of 0.005 to 0.5. For example, in assays performed using the established cell line MT-2, HIV-1IIIB at an MOI of 0.005 was used to infect cells. The unbound virus was then removed by washing the cells, followed by plating the cells into a 96-well plate. The infected cells were cultured in the presence of a serial concentrations of the test compound for 5-7 days. The anti-HIV-1 efficacy was determined by testing for HIV-1 RT activity in the cell culture supernatants. All assays were performed in duplicate and at least two independent experiments were performed. […] The susceptibilities of the HIV-1 variants to antiretroviral agents are expressed as the mean of the EC50 determinations.

[5] = Cytotoxicity, [3H]-thymidine uptake, HSF; type: cell-based; details: human, human skin fibroblasts (HSF)
Protocol: as §1

[6] = system: recombinant HXB2-D 41L/215Y/184V; test: microbe, parasite or virus in culture; type: cell-based, HIV-1; details: Human immunodeficiency virus 1, HXB2, read-out: EC50 in CBMCs
Protocol: (§2) HIV-1IIIB laboratory strain and HXB2-D recombinant of HIV-1 were kindly supplied by R. C. Gallo (Institute of Human Virology, Baltimore, Md.). […] The recombinant viruses were generated by transfection of proviral DNA into MT-4 cells with Lipofectamine using the protocol recommended by the manufacturer .(Gibco BRL, Montreal, Canada). […] Stock viruses were prepared from clarified culture supernatants by centrifugation and stored at −70° C. The viruses were titrated by limited dilution with a 4-fold serial dilution.

[7] = system: recombinant HXB2-D 74V; test: microbe, parasite or virus in culture; type: cell-based, HIV-1; details: Human immunodeficiency virus 1, HXB2, read-out: EC50 in CBMCs
Protocol: as §2

[8] = system: recombinant HXB2-D 65R; test: microbe, parasite or virus in culture; type: cell-based, HIV-1; details: Human immunodeficiency virus 1, HXB2, read-out: EC50 in CBMCs
Protocol: as §2

[9] = system: recombinant HXB2-D 41L/70R/215Y/219Q; test: microbe, parasite or virus in culture; type: cell-based, HIV-1; details: Human immunodeficiency virus 1, HXB2, read-out: EC50 in CBMCs
Protocol: as §2

[10] = system: recombinant HXB2-D 184V; test: microbe, parasite or virus in culture; type: cell-based, HIV-1; details: Human immunodeficiency virus 1, HXB2, read-out: EC50 in CBMCs
Protocol: as §2

[11] = target: T1, wt HIV-1 RT (Human immunodeficiency virus type 1 group M subtype B, UniProt P04585); test: RT inhibition assay, RNA dependent DNA polymerase activity; type: biochemical
T1 construct: Wild type (wt) version of recombinant HIV-1 RT were expressed with a histidine tag; histidine tag; made in house; host or cells: E. coli
Protocol: Wild type (wt) version of recombinant HIV-1 RT were expressed with a histidine tag in an E. coli protein expression system.
RT inhibition assay. The inhibition of HIV-1 RT RNA dependent DNA polymerase activity of DXG-TP was assessed under steady-state enzymatic kinetics by employing homopolymeric RNA templates/DNA primers (T/P) and a heteropolymeric RNA template/DNA primer. The heteropolymeric RNA template contains the HIV-1 primer binding sequence, US and R regions (designated as HIV-PBS). […] The oligodeoxynucleotide primer (dPR) is an 18-mer (5′-[…]-3′) which is complementary to the HIV-1 primer binding sequence. […] The reverse transcription reaction contained final concentrations of 50 mM Tris-HCl, pH 7.8, 60 mM KCl, 10 mM MgCl2, 0.1 U/ml homopolymeric T/P and 5 μM [^3H]dNTP substrate or 25 nM HIV-PBS/dPR and 5 μM each of dTTP, dCTP, dGTP and [-^32P]dATP in […]. […] Inhibition of dNTP incorporation/chain termination. The effect of DXG-TP on RT activity was also assessed using the chain termination/dNTP incorporation assay in which inhibition of nascent DNA synthesis (chain termination) was monitored based upon cDNA synthesis as previously described (Arts et al., 1993; J. Biol. Hem. 269:14672-14680 and Gu et al., 1995, Proc. Natl. Acad. Sci. USA 92:2760-2764). HIV-PBS RNA template and dPR DNA primer were used in this system. The RT reactions were performed in […] containing 50 mM Tris (pH 7.8), 75 mM KCl, 10 mM MgCl2, 100 μM of dNTPs. The HIV-PBS RNA template (50 nM) and [−^32P]-ATP labeled oligodeoxynucleotide primer (125 nM) were included in the reaction. The mixture was first denatured at 85° C. for 2 minutes, then cooled to 55° C. for 8 min, and finally cooled to 37° C. at which time recombinant HIV RT was added (42.5 nM). The reactions were allowed to proceed at 37° C. for 60 min in the presence or absence of inhibitors. The transcribed DNA products were separated on a 5% denaturing polyacrylamide gel and visualized by exposure to X-ray film.

[12] = target: T1, wt HIV-1 RT; test: Chain elongation/termination assay; type: biochemical; details: for chain termination / full-length products, in words: HIV-PBS template, dPR primer, raising inhibitor concentration
Protocol: RT inhibition assay. The inhibition of HIV-1 RT RNA dependent DNA polymerase activity of DXG-TP was assessed under steady-state enzymatic kinetics by employing homopolymeric RNA templates/DNA primers (T/P) and a heteropolymeric RNA template/DNA primer. The heteropolymeric RNA template contains the HIV-1 primer binding sequence, US and R regions (designated as HIV-PBS). […] The oligodeoxynucleotide primer (dPR) is an 18-mer (5′-[…]-3′) which is complementary to the HIV-1 primer binding sequence. […] Inhibition of dNTP incorporation/chain termination. […] HIV-PBS RNA template and dPR DNA primer were used in this system. The RT reactions were performed in […] containing 50 mM Tris (pH 7.8), 75 mM KCl, 10 mM MgCl2, 100 μM of dNTPs. […] The reactions were allowed to proceed at 37° C. for 60 min in the presence or absence of inhibitors. The transcribed DNA products were separated on a 5% denaturing polyacrylamide gel and visualized by exposure to X-ray film.
The chain elongation/termination assay provides a method to directly visualize the products of incorporation of dideoxynucleotide monophosphates into nascent DNA by monitoring the reaction products using polyacrylamide gel electrophoresis. The experiment was performed using wt HIV-1 RT, and HIV-PBS heteropolymeric template, and [^32p]ATP labeled dPR primer in the presence of various concentrations of RT inhibitor. […] As comparison, NNRTI nevirapine was also used in the assay.

[13] = template/primer poly(rA).oligo(dT)12-18, substrate dTTP
[14] = template/primer HIV-PBS/dPR, substrate dNTPs, each 5 μM
[15] = template/primer poly(rC).oligo(dG)12-15, substrate dGTP

Q: Which results are given for `Nc1ccn([C@@H]2CS[C@H](CO)O2)c(=O)n1` [lamivudine, reference compound]?
A: CC50 at 72 h [1]: > 500 µM; CC50 at 72 h [2]: 350 µM; CC50 at 72 h [3]: > 500 µM; EC50 ([4]; Human immunodeficiency virus 1, Jurkat, read-out: EC50, mean values ± SD): 0.53 ± 0.02 µM; EC50 ([4]; Human immunodeficiency virus 1, MT2, read-out: EC50, mean values ± SD): 0.091 ± 0.08 µM; EC50 ([4]; Human immunodeficiency virus 1, MT4, read-out: EC50, mean values ± SD): 0.056 ± 0.014 µM; EC50 ([4]; Human immunodeficiency virus 1, read-out: EC50, mean values ± SD): 0.023 ± 0.011 µM; CC50 at 72 h [5]: 400 µM; EC50 [6]: > 50 µM; EC50 [7]: 0.12 ± 0.07 µM; EC50 [8]: 0.36 ± 0.17 µM; EC50 [9]: 0.062 ± 0.02 µM; EC50 [10]: > 50 µM

Q: For `Cc1cn([C@H]2CC[C@@H](COP(=O)(O)OP(=O)(O)OP(=O)(O)O)O2)c(=O)[nH]c1=O` [ddTTP, reference compound], which IC50 [11, 13] is on record?
A: Its IC50 is 0.024 ± 0.003 µM.

Q: With `Nc1nc2c(ncn2[C@H]2CC[C@@H](COP(=O)(O)OP(=O)(O)OP(=O)(O)O)O2)c(=O)[nH]1` [ddGTP, dideoxyguanosine triphosphate, reference compound] as the compound, how does the IC50 [11, 14] read?
A: Its IC50 is 0.074 ± 0.008 µM.

Q: What about the IC50 [11, 15] of the same compound?
A: The IC50 was 0.011 ± 0.0007 µM.

Q: Which “chain termination / full-length products, in words” value [12] does the source give for `Cc1cn([C@H]2C[C@H](N=[N+]=[N-])[C@@H](COP(=O)(O)OP(=O)(O)OP(=O)(O)O)O2)c(=O)[nH]c1=O` [AZT-TP] here?
A: Its value is “caused increasing chain termination but decreasing full-length products”.

Q: With `Nc1nc2c(ncn2C2COC(COP(=O)(O)OP(=O)(O)OP(=O)(O)O)O2)c(=O)[nH]1` (centres unmarked) [DXG-TP, DXG 5′-triphosphate] as the compound, how does the “mode of RT inhibition, in words” value [11] read?
A: Its value is “competition with natural substrate”.

Q: And the IC50 [11, 14]?
A: Its IC50 is 0.062 ± 0.007 µM.

Q: And the IC50 [11, 13]?
A: The IC50 was > 10 µM.

Q: And the IC50 [11, 15]?
A: Its IC50 is 0.012 µM.

Q: And the “chain termination / full-length products, in words” value [12]?
A: Its value is “caused increasing chain termination but decreasing full-length products”.

Q: And the “inhibitory effect on RT activity by band intensity, compared, in words” value ([12]; cell-free assay)?
A: Its value is “the same as ddGTP and AZT-TP at the same concentrations, but higher than lamivudine-TP”.

Source: US6887879B2, “Pharmaceutical combination of antiviral agents” (priority 1999, dated 2005)
